Measured values taken from patent US20260061080A1, “FLUORESCENT COMPOUND BASED ON NEW INDOCYANINE GREEN IR820, AND PREPARATION AND USE THEREOF” (Shanghai Fluoresoma Medical Technology Co., Ltd., priority 2023, published 2026).

What was measured:
[1] = system: tumor sites of tumor-bearing mice; test: Fluorescence imaging of IR820-cRGD in living tumor-bearing mice; assay type: in vivo; details: tail vein injection, solution in pure water at 10 μM (or equal equivalent probe concentration), observed 2 hours later; FIG. 5
Experimental: Three tumor-bearing mice were administered with an IR820-cRGD solution in pure water at a concentration of 10 μM, a […] solution in pure water at an equal equivalent probe concentration, and an IR820 solution in pure water at an equal equivalent probe concentration through tail vein injection, respectively. 2 hours later, tumor sites of the mice were observed using an in vivo imaging instrument for small animals to obtain imaging situations.

[2] = system: breast cancer cells (MCF-7), cervical cancer cells (Hela), normal cells (CHO); details: 10 μL of 1 mM DMSO mother solution of probe in 2 mL culture dish; CHO vs MCF-7 and Hela; FIG. 4
Experimental: An instrument model used for cell imaging is a Leica TCS SP5 II confocal laser scanning microscope using a HC×PLAPO 63×oil objective (NA: 1.40).
The experiment was carried out in three groups, with one group using normal cells (CHO), one group using breast cancer cells (MCF-7), and one group using cervical cancer cells (Hela). Before an imaging test, a cultured cell culture solution was first sucked away, and the cells were washed once with a PBS buffer solution, and then washed once with DMEM or 1640. 10 μL of a formulated DMSO mother solution with a probe concentration of 1 mM was measured and added into a 2 mL culture dish containing a fresh DMEM or 1640 culture medium. After culture was completed, the excessive culture solution was first removed, the cells were washed with a PBS buffer solution (pH 7.4) to remove an excessive probe, and then the imaging test was carried out on the cells separately using a confocal fluorescence microscope.

| SMILES | fluorescence signal at the tumor site [1] | fluorescence signal in cells (selectivity for tumor cells) [2] |
| --- | --- | --- |
| CC1(C)C(/C=C/C2=C(Oc3ccc(CCC(=O)NCCCC[C@@H]4NC(=O)[C@@H](Cc5ccccc5)NC(=O)[C@H](CC(=O)O)NC(=O)CNC(=O)[C@H](CCCNC(=N)N)NC4=O)cc3)C(=C/C=C3/N(CCCCS(=O)(=O)O)c4ccc5ccccc5c4C3(C)C)/CCC2)=[N+](CCCCS(=O)(=O)O)c2ccc3ccccc3c21 [IR820-cRGD] | highly bright fluorescence signal | greater selective fluorescence signals for the tumor cells |
| CC1(C)C(/C=C/C2=C(Cl)C(=C/C=C3/N(CCCCS(=O)(=O)[O-])c4ccc5ccccc5c4C3(C)C)/CCC2)=[N+](CCCCS(=O)(=O)O)c2ccc3ccccc3c21 [IR820] | weak fluorescence signal | – |
